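Cultured in 96-well plates, cells were exposed to test compound for 48 hours across five concentrations. Here, GI50 denotes the concentration required for 50% inhibition of growth. TGI is the concentration that stops growth completely.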
How the values were obtained:
Experiment in all cases: DTP human tumour cell line panel, 48 h
MCF7 breast = system: MCF7 breast
T-47D breast = system: T-47D breast
BT-549 breast = system: BT-549 breast
U251 CNS = system: U251 CNS
DU-145 prostate = system: DU-145 prostate
HCC-2998 colon = system: HCC-2998 colon
A549 NSCLC = system: A549 NSCLC
MDA-MB-468 breast = system: MDA-MB-468 breast
SNB-75 CNS = system: SNB-75 CNS
OVCAR-4 ovarian = system: OVCAR-4 ovarian
UACC-62 melanoma = system: UACC-62 melanoma
NCI-H460 lung = system: NCI-H460 lung
CAKI-1 renal = system: CAKI-1 renal
M14 melanoma = system: M14 melanoma
SF-539 CNS = system: SF-539 CNS
IGROV1 ovarian = system: IGROV1 ovarian
SK-MEL-2 melanoma = system: SK-MEL-2 melanoma
PC-3 prostate = system: PC-3 prostate
HS 578T breast = system: HS 578T breast
EKVX NSCLC = system: EKVX NSCLC
SNB-19 CNS = system: SNB-19 CNS
NCI-H522 lung = system: NCI-H522 lung
K-562 leukemia = system: K-562 leukemia
SW-620 colon = system: SW-620 colon
COLO 205 colon = system: COLO 205 colon
HCT-116 colon = system: HCT-116 colon
SK-MEL-28 melanoma = system: SK-MEL-28 melanoma
NCI-H23 lung = system: NCI-H23 lung
NCI/ADR-RES ovarian = system: NCI/ADR-RES ovarian
OVCAR-8 ovarian = system: OVCAR-8 ovarian
LOX IMVI melanoma = system: LOX IMVI melanoma
MOLT-4 leukemia = system: MOLT-4 leukemia
SK-MEL-5 melanoma = system: SK-MEL-5 melanoma
MDA-MB-435 = system: MDA-MB-435
HT29 colon = system: HT29 colon
HL-60(TB) leukemia = system: HL-60(TB) leukemia
HOP-62 NSCLC = system: HOP-62 NSCLC
ACHN renal = system: ACHN renal
TK-10 renal = system: TK-10 renal
SF-268 CNS = system: SF-268 CNS
786-0 renal = system: 786-0 renal
SK-OV-3 ovarian = system: SK-OV-3 ovarian
UACC-257 melanoma = system: UACC-257 melanoma
SN12C renal = system: SN12C renal
A498 renal = system: A498 renal
RPMI-8226 leukemia = system: RPMI-8226 leukemia
NCI-H226 lung = system: NCI-H226 lung
HCT-15 colon = system: HCT-15 colon
OVCAR-3 ovarian = system: OVCAR-3 ovarian
RXF 393 renal = system: RXF 393 renal
HOP-92 NSCLC = system: HOP-92 NSCLC
OVCAR-5 ovarian = system: OVCAR-5 ovarian
MALME-3M melanoma = system: MALME-3M melanoma
SF-295 CNS = system: SF-295 CNS
UO-31 renal = system: UO-31 renal
SR leukemia = system: SR leukemia
CCRF-CEM leukemia = system: CCRF-CEM leukemia
MDA-MB-231 breast = system: MDA-MB-231 breast
KM12 colon = system: KM12 colon

Cc1ccc(C2CC(c3ccc(NC(=O)Nc4ccccc4)cc3)=NN2c2ccc(S(N)(=O)=O)cc2)cc1 (stereo not drawn)
GI50 (MCF7 breast): 3.56 µM | TGI (MCF7 breast): 15.2 µM | GI50 (T-47D breast): 3.37 µM | TGI (T-47D breast): 14.6 µM | GI50 (BT-549 breast): 7.84 µM | TGI (BT-549 breast): 20.9 µM | GI50 (U251 CNS): 6.86 µM | TGI (U251 CNS): 20.3 µM | GI50 (DU-145 prostate): 10.2 µM | TGI (DU-145 prostate): 23 µM | GI50 (HCC-2998 colon): 2.65 µM | TGI (HCC-2998 colon): 8.77 µM | GI50 (A549 NSCLC): 3.36 µM | TGI (A549 NSCLC): 14.7 µM | GI50 (MDA-MB-468 breast): 10.2 µM | TGI (MDA-MB-468 breast): 24 µM | GI50 (SNB-75 CNS): 10.7 µM | TGI (SNB-75 CNS): 24 µM | GI50 (OVCAR-4 ovarian): 4.5 µM | TGI (OVCAR-4 ovarian): 17.2 µM | GI50 (UACC-62 melanoma): 10.4 µM | TGI (UACC-62 melanoma): 22.6 µM | GI50 (NCI-H460 lung): 2.99 µM | TGI (NCI-H460 lung): 12.5 µM | GI50 (CAKI-1 renal): 10.4 µM | TGI (CAKI-1 renal): 22.5 µM | GI50 (M14 melanoma): 9.27 µM | TGI (M14 melanoma): 27.2 µM | GI50 (SF-539 CNS): 12.7 µM | TGI (SF-539 CNS): 25.4 µM | GI50 (IGROV1 ovarian): 6.9 µM | TGI (IGROV1 ovarian): 20.3 µM | GI50 (SK-MEL-2 melanoma): 7.4 µM | TGI (SK-MEL-2 melanoma): 21.5 µM | GI50 (PC-3 prostate): 2.6 µM | TGI (PC-3 prostate): 12.8 µM | GI50 (HS 578T breast): 14.8 µM | TGI (HS 578T breast): 39.1 µM | GI50 (EKVX NSCLC): 4.04 µM | TGI (EKVX NSCLC): 16.4 µM | GI50 (SNB-19 CNS): 12.7 µM | TGI (SNB-19 CNS): 25.4 µM | GI50 (NCI-H522 lung): 2.84 µM | TGI (NCI-H522 lung): 15 µM | GI50 (K-562 leukemia): 3.94 µM | TGI (K-562 leukemia): > 100 µM | GI50 (SW-620 colon): 5.53 µM | TGI (SW-620 colon): 22.3 µM | GI50 (COLO 205 colon): 4.22 µM | TGI (COLO 205 colon): 18.6 µM | GI50 (HCT-116 colon): 2.99 µM | TGI (HCT-116 colon): 13.5 µM | GI50 (SK-MEL-28 melanoma): 10.5 µM | TGI (SK-MEL-28 melanoma): 22.5 µM | GI50 (NCI-H23 lung): 3.57 µM | TGI (NCI-H23 lung): 14.3 µM | GI50 (NCI/ADR-RES ovarian): 2.83 µM | TGI (NCI/ADR-RES ovarian): 11 µM | GI50 (OVCAR-8 ovarian): 5.58 µM | TGI (OVCAR-8 ovarian): 21.4 µM | GI50 (LOX IMVI melanoma): 1.76 µM | TGI (LOX IMVI melanoma): 3.23 µM | GI50 (MOLT-4 leukemia): 2.98 µM | TGI (MOLT-4 leukemia): 14.1 µM | GI50 (SK-MEL-5 melanoma): 15.5 µM | TGI (SK-MEL-5 melanoma): 29.5 µM | GI50 (MDA-MB-435): 6.83 µM | TGI (MDA-MB-435): 21.3 µM | GI50 (HT29 colon): 2.3 µM | TGI (HT29 colon): 7.45 µM | GI50 (HL-60(TB) leukemia): 2.13 µM | TGI (HL-60(TB) leukemia): 10.6 µM | GI50 (HOP-62 NSCLC): 13.3 µM | TGI (HOP-62 NSCLC): 28.7 µM | GI50 (ACHN renal): 4.16 µM | TGI (ACHN renal): 14.9 µM | GI50 (TK-10 renal): 9.93 µM | TGI (TK-10 renal): 22.2 µM | GI50 (SF-268 CNS): 10.2 µM | TGI (SF-268 CNS): 24 µM | GI50 (786-0 renal): 3.86 µM | TGI (786-0 renal): 15.7 µM | GI50 (SK-OV-3 ovarian): 12.9 µM | TGI (SK-OV-3 ovarian): 27.1 µM | GI50 (UACC-257 melanoma): 8.48 µM | TGI (UACC-257 melanoma): 22 µM | GI50 (SN12C renal): 3.92 µM | TGI (SN12C renal): 14.5 µM | GI50 (A498 renal): 9.06 µM | TGI (A498 renal): 21.3 µM | GI50 (RPMI-8226 leukemia): 3.8 µM | TGI (RPMI-8226 leukemia): 35.9 µM | GI50 (NCI-H226 lung): 10.9 µM | TGI (NCI-H226 lung): 24.9 µM | GI50 (HCT-15 colon): 4.35 µM | TGI (HCT-15 colon): 16.9 µM | GI50 (OVCAR-3 ovarian): 3.97 µM | TGI (OVCAR-3 ovarian): 18.7 µM | GI50 (RXF 393 renal): 13.1 µM | TGI (RXF 393 renal): 27.6 µM | GI50 (HOP-92 NSCLC): 3.21 µM | TGI (HOP-92 NSCLC): 14.8 µM | GI50 (OVCAR-5 ovarian): 12.4 µM | TGI (OVCAR-5 ovarian): 25.2 µM | GI50 (MALME-3M melanoma): 7.88 µM | TGI (MALME-3M melanoma): 20.8 µM | GI50 (SF-295 CNS): 5.34 µM | TGI (SF-295 CNS): 18.8 µM | GI50 (UO-31 renal): 3.45 µM | TGI (UO-31 renal): 14.6 µM | GI50 (SR leukemia): 4.28 µM | TGI (SR leukemia): 26.7 µM | GI50 (CCRF-CEM leukemia): 3.98 µM | TGI (CCRF-CEM leukemia): 22 µM | GI50 (MDA-MB-231 breast): 12.3 µM | TGI (MDA-MB-231 breast): 25.3 µM | GI50 (KM12 colon): 5.57 µM | TGI (KM12 colon): 22.1 µM
